The values below come from patent publication US5126326A (Bio-Mega, Inc., priority 1989, dated 1992).

Where a name gives a salt, the structure may show the parent alone. *1 amine or outer side, *2 acyl side, *3 side chain or, on linkers, in order; H or OH if unused. Where a SMILES comes first, the peptide text is derived from it. [ ]: non-standard residue; d: D form. The star is where a group is joined. ACHPA = O=C(C[C@H](O)[C@H](CC1CCCCC1)N[*:1])[*:2]; Carboxymethyl = O=C(O)C*; X1 = O=C(C*)OCc1ccccc1; Boc = CC(C)(C)OC(=O)*

The assay has as its target HIV protease (Human immunodeficiency virus type 1 group M subtype B, UniProt P03366). The assay can be described thus: biochemical. The protocol:
Recombinant HIV Protease HPLC Assay:
The enzyme was stored as 10 μL aliquots at -70° C. The aliquots were diluted to 1/10th of the original concentration with buffer prior to use (enzyme working solution).
The substrate was made into 10 mM stock in DMSO and stored at -20° C. Prior to use, the stock was diluted with buffer to give a 400 μM solution substrate working solution.
Buffer: 2-(4-Morpholino)ethanesulfonic acid (50 mM), NaCl (25 mM) and EDTA (5 mM) was dissolved in distilled H2 O (90 mL) and the solution was adjusted to pH6 with concentrated aqueous NaOH. The latter solution was diluted to 100 mL with H2 O to give the buffer.
(2) The assay mixture was prepared by mixing 10 μL of the substrate working solution, 0.5 μL of the solution of the test compound in DMSO from step 1, and 10 μL of the enzyme working solution. (3) The assay mixture was incubated at 37° C. for 1 h. (4) The reaction was quenched by adding 100 μL of 2% aqueous TFA. […] Elution was monitored at 210 nm. (6) A control which was the assay mixture without the test compound, was subjected simultaneously to steps 3 to 5.
Inhibition Studies: Cleavage products and remaining parent substrate were quantified by either peak height or by integration of the appropriate HPLC peaks. Substrate conversion was calculated using the following relationship: [formula] Enzyme inhibition of the test compound was calculated as follows: [formula]
The percent inhibition of the enzyme was determined for a minimum of three different concentrations of the test compound. Thereafter, the IC50 was determined graphically by plotting the percent inhibition of the substrate against the concentration of the test compound.
As for `CC(C)C[C@H](NC(=O)C[C@H](O)[C@H](CC1CCCCC1)NC(=O)[C@H](Cc1ccccc1)NC(=O)[C@H](Cc1ccc(OCC(=O)O)cc1)NC(=O)OC(C)(C)C)C(=O)N[C@@H](Cc1ccccc1)C(N)=O` [Example 5, Boc-Tyr(O-AcOH)-Phe-ACHPA-Leu-Phe-NH2] (Boc-Y(Carboxymethyl)F[ACHPA]LF-NH2), the IC50 – broadly, the concentration that inhibits the measured activity by half – came to 1000 nM. In other words, the single-digit micromolar range.

On to `CC(C)C[C@H](NC(=O)C[C@H](O)[C@H](CC1CCCCC1)NC(=O)[C@@H](NC(=O)[C@@H](N)Cc1ccc(OCC(=O)O)cc1)C(C)C)C(=O)N[C@@H](Cc1ccccc1)C(N)=O` [Example 4, H-Tyr(O-AcOH)-Val-ACHPA-Leu-Phe-NH2.HCl] (H-Y(Carboxymethyl)V[ACHPA]LF-NH2), for which the IC50 amounted to 10 nM.

In turn, `CC(C)C[C@H](NC(=O)C[C@H](O)[C@H](CC1CCCCC1)NC(=O)[C@@H](NC(=O)[C@H](Cc1ccc(OCC(=O)O)cc1)NC(=O)OC(C)(C)C)C(C)C)C(=O)N[C@@H](Cc1ccccc1)C(N)=O` [Example 3, Boc-Tyr(O-AcOH)-Val-ACHPA-Leu-Phe-NH2] (Boc-Y(Carboxymethyl)V[ACHPA]LF-NH2) had a half-inhibitory concentration (IC50) of 52 nM.

`CC(C)C[C@H](NC(=O)C[C@H](O)[C@H](CC1CCCCC1)NC(=O)[C@@H](NC(=O)[C@H](Cc1ccc(OCC(=O)OCc2ccccc2)cc1)NC(=O)OC(C)(C)C)C(C)C)C(=O)N[C@@H](Cc1ccccc1)C(N)=O` [Example 1] displayed a 50% inhibitory concentration (IC50) of 70 nM.

With `CC(C)C[C@H](NC(=O)C[C@H](O)[C@H](CC1CCCCC1)NC(=O)[C@@H](NC(=O)[C@@H](N)Cc1ccc(OCC(=O)OCc2ccccc2)cc1)C(C)C)C(=O)N[C@@H](Cc1ccccc1)C(N)=O` [Example 2, H-Tyr(O-AcOBzl)-Val-ACHPA-Leu-Phe-NH2.HCl] (H-Y(X1)V[ACHPA]LF-NH2), the IC50 was 5 nM.
